In article PMC10894281, “Kinetic characterization of human mRNA guanine-N7 methyltransferase” (Scientific Reports, 2024):

How the values were obtained:
Assay type in all cases: biochemical
[1] = target: T1, RNA cap guanine-N7 methyltransferase (hRNMT) (Homo sapiens, UniProt O43148); experiment: radiometric scintillation proximity methyltransferase assay (3H-SAM, biotinylated RNA); product inhibition; parameters: gene RNMT; RNMT (1–476), full length
[2] = target: T1, RNA cap guanine-N7 methyltransferase (hRNMT); experiment: steady-state kinetics, apparent Km by radiometric scintillation proximity assay; parameters: gene RNMT; RNMT (1–476), full length; also catalytic domain RNMT (123–476); conditions: read-out: Km^app
[3] = target: T1, RNA cap guanine-N7 methyltransferase (hRNMT); experiment: radiometric scintillation proximity methyltransferase assay (3H-SAM, biotinylated RNA); parameters: gene RNMT; RNMT (1–476), full length

T1 sequence (O43148 whole entry, the tested form may be a part): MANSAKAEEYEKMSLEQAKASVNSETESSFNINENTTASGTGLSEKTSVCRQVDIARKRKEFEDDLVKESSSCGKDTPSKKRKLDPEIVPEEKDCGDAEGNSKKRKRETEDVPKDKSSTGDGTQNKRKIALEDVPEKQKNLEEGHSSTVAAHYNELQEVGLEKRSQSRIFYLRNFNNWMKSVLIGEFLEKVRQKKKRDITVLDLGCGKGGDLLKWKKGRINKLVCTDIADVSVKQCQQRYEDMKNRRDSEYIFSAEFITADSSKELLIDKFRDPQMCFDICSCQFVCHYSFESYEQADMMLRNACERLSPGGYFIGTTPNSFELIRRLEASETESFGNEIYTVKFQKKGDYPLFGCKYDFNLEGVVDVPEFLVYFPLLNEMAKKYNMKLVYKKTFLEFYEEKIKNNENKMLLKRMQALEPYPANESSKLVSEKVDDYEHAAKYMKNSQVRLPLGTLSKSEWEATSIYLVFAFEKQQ

Nc1ncnc2c1ncn2[C@@H]1O[C@H](CSCC[C@H](N)C(=O)O)[C@@H](O)[C@H]1O [SAH]
IC50 [1]: 389 ± 110 nM

C[S+](CC[C@H](N)C(=O)[O-])C[C@H]1O[C@@H](n2cnc3c(N)ncnc32)[C@H](O)[C@@H]1O (stereo partly shown) [SAM]
Km [2]: 0.19 ± 0.038 µM

Nc1ncnc2c1ncn2[C@@H]1O[C@H](C[C@@H](N)CC[C@H](N)C(=O)O)[C@@H](O)[C@H]1O [Sinefungin]
IC50 [3]: 3 ± 0.6 nM

Cc1ccc(C(=O)Nc2ccc(S(=O)(=O)O)c3cc(S(=O)(=O)O)cc(S(=O)(=O)O)c23)cc1NC(=O)c1cccc(NC(=O)Nc2cccc(C(=O)Nc3cc(C(=O)Nc4ccc(S(=O)(=O)O)c5cc(S(=O)(=O)O)cc(S(=O)(=O)O)c45)ccc3C)c2)c1 [Suramin]
IC50 ([3]; read-out: IC50): 5 ± 0.4 nM
